Test results: patent US20140227335A1 (priority 2012, published 2014)

Key:
VSV-Gpp [1] = type: cell-based, HIV lentivirus pseudotyped with VSV-G
SIVmac251 32H = test: SIV infectivity assay in TZM-bl cells; type: cell-based; conditions: Simian immunodeficiency virus
HIV-1 93BR029 = test: microbe, parasite or virus in culture; type: cell-based; conditions: 93BR029 (clade F, R5); for IC50: Human immunodeficiency virus 1, TZM-bl
HIV-1 92HT599 = test: Anti-HIV efficacy in fresh human PBMC (reverse transcriptase activity); type: cell-based; conditions: Human immunodeficiency virus 1, PBMC, 168 h; 92HT599 (clade B, X4); PBMCs, MOI = 0.1, 7 days
[2] = Cytotoxicity on human cell lines (Cell Titer-Glo); type: cell-based
HIV-1 93BR020 = test: HIV infectivity assay in TZM-bl cells; type: cell-based; conditions: 93BR020 (clade F, X4); for IC50: Human immunodeficiency virus 1, TZM-bl
[3] = Compound cytotoxicity in uninfected PBMC (MTS assay); conditions: human
[4] = system: freshly activated human PBMC; test: as above; conditions: freshly activated PBMCs, uninfected plates, MTS assay, 7 days
HIV-1 92TH599 = test: HIV infectivity assay in TZM-bl cells; type: cell-based; conditions: 92TH599 (clade B, X4); for IC50: Human immunodeficiency virus 1, TZM-bl
HIV-1 92RW021 = test: HIV infectivity assay in TZM-bl cells; type: cell-based; conditions: 92RW021 (clade A, R5); for IC50: Human immunodeficiency virus 1, TZM-bl
HIV-1 96USNG31 = test: Anti-HIV efficacy in fresh human PBMC (reverse transcriptase activity); type: cell-based; conditions: Human immunodeficiency virus 1, PBMC, 168 h; 96USNG31 (clade C, X4/R5); PBMCs, MOI = 0.1, 7 days
VSV-Gpp [5] = type: cell-based, HIV lentivirus pseudotyped with VSV-G; remark: listed apart in the source

N=C1Sc2ccccc2C2=NCCCN12 [PD, PD 404,182]
reversal of PD's antiviral effect by liposomes (VSV-Gpp [1]): not able to reverse PD's antiviral effect
IC50 (SIVmac251 32H): 1100 nM
IC90 (HIV-1 93BR029; PD in DMEM + 10% FBS): 3500 ± 200 nM
IC90 (HIV-1 93BR029; PD in cervical fluids): 4600 ± 300 nM
IC90 (HIV-1 93BR029; PD in seminal plasma): 3720 ± 260 nM
IC50 (HIV-1 93BR029; PD in DMEM + 10% FBS): 700 nM
IC50 (HIV-1 93BR029; PD in cervical fluids): 1200 nM
IC50 (HIV-1 93BR029; PD in seminal plasma): 850 nM
IC50 (HIV-1 92HT599): 550 nM
IC90 (HIV-1 92HT599): 1920 nM
CC50 ([2]; HepG2, HCT-8, Huh-7, Huh-7.5, TZM, PC3 and 293T cells, seven different human cell lines): > 300000 nM
CC50 ([2]; human, TZM-bl (HeLa) cervical cancer cells): > 300000 nM
IC90 (HIV-1 93BR020; PD in DMEM + 10% FBS): 6900 ± 400 nM
IC90 (HIV-1 93BR020; PD in cervical fluids): 7500 ± 400 nM
IC90 (HIV-1 93BR020; PD in seminal plasma): 7190 ± 620 nM
IC50 (HIV-1 93BR020; PD in DMEM + 10% FBS): 1400 nM
IC50 (HIV-1 93BR020; PD in cervical fluids): 1900 nM
IC50 (HIV-1 93BR020; PD in seminal plasma): 1610 nM
cytotoxicity at 7 days, 200 μM [3]: 48%
CC50 at 7 days ([3]; CC50, freshly activated PBMCs, uninfected plates, MTS assay, 7 days): ~200000 nM
CC50 [4]: > 200000 nM
IC50 (DMEM; IC90 per footnote) (HIV-1 92TH599; PD in DMEM + 10% FBS): 5900 ± 300 nM
IC50 (Cervical Fluid; IC90 per footnote) (HIV-1 92TH599; PD in cervical fluids): 6400 ± 500 nM
IC50 (Seminal Plasma; IC90 per footnote) (HIV-1 92TH599; PD in seminal plasma): 6310 ± 520 nM
IC50 (HIV-1 92TH599; PD in DMEM + 10% FBS): 1800 nM
IC50 (HIV-1 92TH599; PD in cervical fluids): 2200 nM
IC50 (HIV-1 92TH599; PD in seminal plasma): 1930 nM
IC90 (HIV-1 92RW021; PD in DMEM + 10% FBS): 3800 ± 300 nM
IC90 (HIV-1 92RW021; PD in cervical fluids): 4400 ± 200 nM
IC90 (HIV-1 92RW021; PD in seminal plasma): 4620 ± 320 nM
IC50 (HIV-1 92RW021; PD in DMEM + 10% FBS): 430 nM
IC50 (HIV-1 92RW021; PD in cervical fluids): 670 nM
IC50 (HIV-1 92RW021; PD in seminal plasma): 580 nM
IC50 (HIV-1 96USNG31): 140 nM
IC90 (HIV-1 96USNG31): 1620 nM
VSV-Gpp infectivity remaining (VSV-Gpp [5]): 0.1%
effect of fetal bovine serum on PD's antiviral activity (VSV-Gpp [5]): no inhibitory effect
inhibition of VSV-Gpp supernatant infectivity relative to DMSO-treated virus (VSV-Gpp [5]): ~1000 fold
sensitivity of virus to PD in conditioned medium (VSV-Gpp [5]): significantly less sensitive to inactivation by PD
